Assay results as given in patent publication US20240409510A1 (priority 2022, published 2024).

The molecules below were run against SARS-CoV-2 3CLpro (Severe acute respiratory syndrome coronavirus 2, UniProt P0DTD1). Details: pH 7.5.
Assay type: biochemical

SMILES	Activity of SARS-CoV-2 MPro inhibitors
CCCN(CCC)[C@@H]1C[C@@H](C(=O)NC(C[C@@H]2CCNC2=O)C(=O)C(=O)c2ccccc2)N(C(=O)[C@@H](NC(=O)C(F)(F)F)C(C)(C)C)C1 (stereo partly shown) [Compound 1]	A+++ (key: A >100 μM; A+ <50 μM; A++ <10 μM; A+++ <1 μM)
CC(C)O[C@@H]1C[C@@H](C(=O)NC(C[C@@H]2CCNC2=O)C(=O)C(=O)c2ccccc2)N(C(=O)[C@@H](NC(=O)C(F)(F)F)C(C)(C)C)C1 (stereo partly shown) [Compound 2]	A+++ (key: A >100 μM; A+ <50 μM; A++ <10 μM; A+++ <1 μM)
CC(C)(C)C(NC(=O)C(F)(F)F)C(=O)N1C[C@H]2[C@@H](C1C(=O)N[C@@H](C[C@@H]1CCNC1=O)C(=O)C(=O)c1ccccc1)C2(C)C (stereo partly shown) [Compound 3]	A+++ (key: A >100 μM; A+ <50 μM; A++ <10 μM; A+++ <1 μM)
CC(C)(C)[C@H](NC(=O)C(Cl)(Cl)Cl)C(=O)N1C[C@H]2[C@@H]([C@H]1C(=O)NC(C[C@@H]1CCNC1=O)C(=O)C(=O)c1ccccc1)C2(C)C (stereo partly shown) [Compound 4]	A++ (key: A >100 μM; A+ <50 μM; A++ <10 μM; A+++ <1 μM)
Cc1ccc(C(=O)C(=O)[C@H](C[C@@H]2CCNC2=O)NC(=O)C2[C@@H]3[C@H](CN2C(=O)C(NC(=O)C(F)(F)F)C(C)(C)C)C3(C)C)cc1 (stereo partly shown) [Compound 5]	A+++ (key: A >100 μM; A+ <50 μM; A++ <10 μM; A+++ <1 μM)
CC(C)(C)OC(=O)NC(C(=O)N1C[C@H]2[C@@H](C1C(=O)N[C@@H](C[C@@H]1CCNC1=O)C(=O)C(=O)c1ccc(F)cc1)C2(C)C)C(C)(C)C (stereo partly shown) [Compound 6]	A+++ (key: A >100 μM; A+ <50 μM; A++ <10 μM; A+++ <1 μM)
CC(C)(C)C(NC(=O)C(F)(F)F)C(=O)N1C[C@H]2[C@@H](C1C(=O)N[C@@H](C[C@@H]1CCNC1=O)C(=O)C(=O)c1ccc(F)cc1)C2(C)C (stereo partly shown) [Compound 7]	A+++ (key: A >100 μM; A+ <50 μM; A++ <10 μM; A+++ <1 μM)
COc1ccc(C(=O)C(=O)[C@H](C[C@@H]2CCNC2=O)NC(=O)C2[C@@H]3[C@H](CN2C(=O)C(NC(=O)C(F)(F)F)C(C)(C)C)C3(C)C)cc1 (stereo partly shown) [Compound 8]	A+++ (key: A >100 μM; A+ <50 μM; A++ <10 μM; A+++ <1 μM)
CC(C)(C)C(NC(=O)C(Cl)(Cl)Cl)C(=O)N1C[C@H]2[C@@H](C1C(=O)N[C@@H](C[C@@H]1CCNC1=O)C(=O)C(=O)c1ccccc1)C2(C)C (stereo partly shown) [Compound 9]	A (key: A >100 μM; A+ <50 μM; A++ <10 μM; A+++ <1 μM)
Cc1cc(C)cc(C(=O)C(=O)[C@H](C[C@@H]2CCNC2=O)NC(=O)C2[C@@H]3[C@H](CN2C(=O)C(NC(=O)C(F)(F)F)C(C)(C)C)C3(C)C)c1 (stereo partly shown) [Compound 10]	A+++ (key: A >100 μM; A+ <50 μM; A++ <10 μM; A+++ <1 μM)
CCCC(=O)C(=O)[C@H](C[C@@H]1CCNC1=O)NC(=O)C1[C@@H]2[C@H](CN1C(=O)C(NC(=O)C(F)(F)F)C(C)(C)C)C2(C)C (stereo partly shown) [Compound 11]	A+++ (key: A >100 μM; A+ <50 μM; A++ <10 μM; A+++ <1 μM)
CC(C)(C)[C@H](NC(=O)C(F)(F)F)C(=O)N1Cc2ccccc2C[C@H]1C(=O)N[C@@H](C[C@@H]1CCNC1=O)C(=O)C(=O)c1ccccc1 [Compound 12]	A+++ (key: A >100 μM; A+ <50 μM; A++ <10 μM; A+++ <1 μM)
CC(C)(C)[C@H](NC(=O)C(F)(F)F)C(=O)N1Cc2ccccc2C[C@H]1C(=O)NC(CC1CCCNC1=O)C(=O)C(=O)c1ccccc1 (stereo partly shown) [Compound 13]	A+ (key: A >100 μM; A+ <50 μM; A++ <10 μM; A+++ <1 μM)
CCCC(=O)C(=O)[C@H](C[C@@H]1CCNC1=O)NC(=O)[C@@H]1Cc2ccccc2CN1C(=O)[C@@H](NC(=O)C(F)(F)F)C(C)(C)C [Compound 14]	A++ (key: A >100 μM; A+ <50 μM; A++ <10 μM; A+++ <1 μM)
COc1ccccc1C(=O)C(=O)[C@H](C[C@@H]1CCNC1=O)NC(=O)C1[C@@H]2[C@H](CN1C(=O)C(NC(=O)C(F)(F)F)C(C)(C)C)C2(C)C (stereo partly shown) [Compound 15]	A+++ (key: A >100 μM; A+ <50 μM; A++ <10 μM; A+++ <1 μM)
CCCC(=O)C(=O)[C@H](C[C@@H]1CCNC1=O)NC(=O)[C@@H]1Cc2ccccc2CN1C(=O)[C@@H](NC(=O)OCc1ccncc1)C(C)(C)C [Compound 16]	A+++ (key: A >100 μM; A+ <50 μM; A++ <10 μM; A+++ <1 μM)
CC(C)(C)[C@H](NC(=O)CCc1ccccc1)C(=O)N1Cc2ccccc2C[C@H]1C(=O)N[C@@H](C[C@@H]1CCNC1=O)C(=O)C(=O)c1ccccc1 [Compound 17]	A+++ (key: A >100 μM; A+ <50 μM; A++ <10 μM; A+++ <1 μM)
CC(C)(C)[C@H](NC(=O)/C=C/c1ccccc1)C(=O)N1Cc2ccccc2C[C@H]1C(=O)N[C@@H](C[C@@H]1CCNC1=O)C(=O)C(=O)c1ccccc1 [Compound 18]	A+++ (key: A >100 μM; A+ <50 μM; A++ <10 μM; A+++ <1 μM)
CC(C)(C)C(NC(=O)C(F)(F)F)C(=O)N1C[C@H]2[C@@H](C1C(=O)N[C@@H](C[C@@H]1CCNC1=O)C(=O)C(=O)c1ccncc1)C2(C)C (stereo partly shown) [Compound 20]	A++ (key: A >100 μM; A+ <50 μM; A++ <10 μM; A+++ <1 μM)
